Assay results taken from PMC6268742, “Flavonoids and Other Compounds from Ouratea ferruginea (Ochnaceae) as Anticancer and Chemopreventive Agents” (Molecules, 2012).
Where “and” joins values, the source holds several entries; their conditions need not be identical. Equal values may be shown once.

Experiments:
[1] = test system: cytochrome P450-dependent 7-ethoxycoumarin O-deethylase (ECOD); assay: CYP-catalyzed ethoxycoumarin O-desalkylation (ECOD) inhibition assay with rat liver microsomes; format: biochemical; settings: rat hepatic microsomes; for ECOD activity: compound 0.08 mg/mL, activity relative to control (DMSO) = 100%
Protocol: (§1) Male Wistar rats ([…] weight) were obtained from Universidade da Zona Oeste (UEZO). The animals were kept under light- and temperature-controlled conditions and were provided with rodent laboratory chow and water ad libitum. The rats were euthanized prior to the preparation of cytosolic and microsomal fractions. The livers were removed, placed in ice-cold 0.1 M phosphate buffer (pH 7.4) and then homogenized. Fractions were prepared by differential centrifugation and protein content was determined by Peterson’s methods.
(§2) 5,4′-Dihydroxy-7,3′5′-trimethoxyisoflavone (9), 7,3′-di-O-methylorobol (10), piscigenin (11), and sequoiaflavone (15) were accurately weighed. Solutions were prepared at a concentration of 8 mg/mL using DMSO as a solvent. CYP1A and GST assays were used aliquots of 10 µL of solution.
Ethoxycoumarin O-desalkylation by rat liver microsomes was used as a probe to determine CYP1A activity. Ethoxycumarin (1 mM), NADPH (1 mM), magnesium chloride (10 mM) and rat liver microsomes (5.5 μg) were incubated in phosphate buffer (0.1 M), pH 7.8 (0.5 mL ﬁnal volume). Incubations were at 37 °C for 5 min. The reaction was terminated with trichloroacetic acid (TCA) 2.5% followed by centrifugation (1000 g, 10 min). Immediately before ﬂuorescence determination, 2 mL of glycine-NaOH buffer were added and fluorescence of cumarin was determined (excitation: 390 nm and emission 440 nm). CYP activity was calculated as amount of produced cumarin per minute per protein mg. Assays containing phytochemicals were compared with control with DMSO (dimethylsulfoxide).

[2] = test system: glutathione S-transferase (GST); assay: Glutathione S-transferase (GST) inhibition assay (CDNB conjugation) with rat hepatic cytosolic fraction; format: biochemical; settings: for GST activity: compound 0.08 mg/mL, activity relative to control (DMSO), CDNB substrate; for inhibition of GST activity: 0.08 mg/mL
Protocol: as §1, §2
The conjugation of glutathione to 1-chloro-2,4,-dinitrobenzene (CDNB) was measured as a non-speciﬁc substrate for GST activity. To a quartz cuvette reduced cytosolic fraction (10 μg), CDNB (2 mM) and 100 mM potassium phosphate buffer (pH 6.1) were added in a ﬁnal volume of 1 mL. The cuvette was placed in a spectrophotometer and the reaction initiated by the addition of glutathione (5 mM). The increase in absorbance at 340 nm over a 3 min period was measured at room temperature. An extinction coefﬁcient of […] was used to determine activity from the initial slope of the reaction. GST activity was calculated as amount of produced conjugated per minute per protein mg. Assays containing phytochemicals were compared with control with DMSO (dimethylsulfoxide).

[3] = test system: 7-ethoxycoumarin O-deethylase (ECOD); design: method as in PMID 9522437; settings: liver microsomes from rats treated with 3-methylcholanthrene; cited from earlier work
CYP1A1 = test system: CYP1A1; design: method as in PMID 15661813; settings: HepG2 cell; cited from earlier work

Row | Molecule | inhibition of ECOD activity ([1]; compared with control 100%, 0.08 mg/mL) [%] | ECOD activity [1] | GST activity [2] [%] | effect on microsomal ECOD activity [3] | CYP1A1 EROD activity (CYP1A1) | inhibition of GST activity [2]
1 | COc1cc(O)c2c(=O)cc(-c3ccc(O)c(-c4c(O)cc(O)c5c(=O)cc(-c6ccc(O)cc6)oc45)c3)oc2c1 [Compound 15, sequoiaflavone] | 75 | 24.8% and 24.8 ± 1.2% | 77.4 ± 6.7 | – | – | –
2 | (±)-catechin | – | – | – | no effect | – | –
3 | COc1cc(OC)c2c(=O)cc(-c3ccccc3)oc2c1 [DMF, 5,7-Dimethoxyflavone] | – | – | – | – | virtually down to zero | –
4 | COc1cc(O)c2c(=O)c(-c3cc(OC)c(O)c(OC)c3)coc2c1 [Compound 9, 5,4′-dihydroxy-7,5′,3′-trimethoxyisoflavone] | – | 66.9 ±27.7% | 25.3 ±5.3 | – | – | ~75%
5 | COc1cc(-c2coc3cc(O)cc(O)c3c2=O)cc(OC)c1O [Compound 11, piscigenin] | – | 53.5 ± 12.4% | 32.2 ±1.3 | – | – | ~70%
6 | COc1cc(O)c2c(=O)c(-c3ccc(O)c(OC)c3)coc2c1 [Compound 10, 7,3′-di-O-methylorobol] | – | 77.8 ± 11.6% | – | – | – | not observed
